# Article PMC7960226 (Science (New York, N.Y.), 2020)
# pIC50: −log10 of the molar value. Where two headings read alike, the source gives them in different places.
# Legend:
# [1] = molecular target: CHRM2 (Homo sapiens, UniProt P08172); details: Table 2, CHRM2; accurate to ±20%
# [2] = molecular target: OPRM1 (Homo sapiens, UniProt P35372); test: safety panel assay, OPRM1; format: binding; details: Table 2, OPRM1 (OPRM); accurate to ±20%
# [3] = molecular target: PDE3A (Homo sapiens, UniProt Q14432); test: safety panel assay, PDE3A; format: biochemical; details: Table 2, PDE3A; accurate to ±20%
# [4] = molecular target: T1, ADRA1A (Homo sapiens, UniProt P35348); details: Table 2, ADRA1A; accurate to ±20%
# T1 sequence (P35348 1-466): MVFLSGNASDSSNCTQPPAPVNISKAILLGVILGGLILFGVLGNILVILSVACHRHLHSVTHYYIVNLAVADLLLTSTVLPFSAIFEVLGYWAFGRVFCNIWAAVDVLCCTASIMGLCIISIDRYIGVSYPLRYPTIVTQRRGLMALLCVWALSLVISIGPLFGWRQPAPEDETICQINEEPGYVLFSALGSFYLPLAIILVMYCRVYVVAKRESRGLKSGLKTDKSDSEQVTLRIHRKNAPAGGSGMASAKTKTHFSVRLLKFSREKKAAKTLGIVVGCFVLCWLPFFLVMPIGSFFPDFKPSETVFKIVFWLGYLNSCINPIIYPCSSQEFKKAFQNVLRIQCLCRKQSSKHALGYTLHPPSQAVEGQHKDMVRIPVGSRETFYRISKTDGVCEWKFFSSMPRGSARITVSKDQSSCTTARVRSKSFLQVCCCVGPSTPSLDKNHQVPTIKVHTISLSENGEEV
# [5] = molecular target: SLC22A6 (Homo sapiens, UniProt Q4U2R8); test: in vitro transporter assay, SLC22A6; details: Table 1, predicted target SLC22A6
# Chain of SLC22A6 (Q4U2R8 whole entry): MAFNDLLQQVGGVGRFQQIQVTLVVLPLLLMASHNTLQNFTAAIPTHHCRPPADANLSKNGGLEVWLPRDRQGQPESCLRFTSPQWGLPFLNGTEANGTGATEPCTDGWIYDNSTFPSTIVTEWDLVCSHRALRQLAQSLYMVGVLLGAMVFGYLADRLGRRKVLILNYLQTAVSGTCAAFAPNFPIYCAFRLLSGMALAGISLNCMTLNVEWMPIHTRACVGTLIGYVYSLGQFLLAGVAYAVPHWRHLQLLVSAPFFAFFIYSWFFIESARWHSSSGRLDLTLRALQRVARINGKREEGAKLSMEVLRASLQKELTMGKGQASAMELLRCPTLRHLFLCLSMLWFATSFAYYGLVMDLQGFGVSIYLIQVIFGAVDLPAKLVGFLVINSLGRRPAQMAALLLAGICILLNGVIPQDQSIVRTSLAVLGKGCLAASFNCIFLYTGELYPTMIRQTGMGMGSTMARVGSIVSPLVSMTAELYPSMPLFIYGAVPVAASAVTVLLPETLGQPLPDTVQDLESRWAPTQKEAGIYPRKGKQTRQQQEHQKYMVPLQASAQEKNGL
# [6] = molecular target: PRMT1 (Homo sapiens, UniProt Q99873); details: Table 1, predicted target PRMT1
# [7] = molecular target: PDE4D (Homo sapiens, UniProt Q08499); test: in vitro assay, PDE4D; format: biochemical; details: Table 2, PDE4D; accurate to ±20%
# [8] = molecular target: T2, SLCO2B1 (Homo sapiens, UniProt O94956); test: in vitro transporter inhibition, SLCO2B1; format: biochemical; details: Table 2, SLCO2B1; accurate to ±20%
# T2 sequence (O94956 1-709): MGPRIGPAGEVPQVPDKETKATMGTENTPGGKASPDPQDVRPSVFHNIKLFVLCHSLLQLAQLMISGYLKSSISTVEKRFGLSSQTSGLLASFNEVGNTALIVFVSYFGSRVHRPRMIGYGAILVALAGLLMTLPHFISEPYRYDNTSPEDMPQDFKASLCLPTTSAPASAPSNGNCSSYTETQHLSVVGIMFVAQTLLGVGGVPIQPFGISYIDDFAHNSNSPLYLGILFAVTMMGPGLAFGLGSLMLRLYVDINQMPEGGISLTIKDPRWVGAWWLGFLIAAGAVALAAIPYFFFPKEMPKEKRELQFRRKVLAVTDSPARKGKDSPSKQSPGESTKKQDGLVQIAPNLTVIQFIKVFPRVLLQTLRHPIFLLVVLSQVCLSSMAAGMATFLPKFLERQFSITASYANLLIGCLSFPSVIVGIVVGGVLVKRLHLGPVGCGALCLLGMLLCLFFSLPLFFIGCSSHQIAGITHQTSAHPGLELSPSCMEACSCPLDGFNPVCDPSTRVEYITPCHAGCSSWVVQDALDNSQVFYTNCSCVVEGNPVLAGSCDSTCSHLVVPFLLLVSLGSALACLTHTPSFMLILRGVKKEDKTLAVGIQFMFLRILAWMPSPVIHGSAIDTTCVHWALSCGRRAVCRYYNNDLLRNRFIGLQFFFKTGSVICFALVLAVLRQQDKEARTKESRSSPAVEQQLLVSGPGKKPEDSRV
# [9] = molecular target: ADORA3 (Homo sapiens, UniProt P0DMS8); details: Table 2, ADORA3; accurate to ±20%
# [10] = molecular target: DRD1 (Homo sapiens, UniProt P21728); format: binding; details: Table 2, DRD1; accurate to ±20%
# Chain of DRD1 (P21728 whole entry, species assumed): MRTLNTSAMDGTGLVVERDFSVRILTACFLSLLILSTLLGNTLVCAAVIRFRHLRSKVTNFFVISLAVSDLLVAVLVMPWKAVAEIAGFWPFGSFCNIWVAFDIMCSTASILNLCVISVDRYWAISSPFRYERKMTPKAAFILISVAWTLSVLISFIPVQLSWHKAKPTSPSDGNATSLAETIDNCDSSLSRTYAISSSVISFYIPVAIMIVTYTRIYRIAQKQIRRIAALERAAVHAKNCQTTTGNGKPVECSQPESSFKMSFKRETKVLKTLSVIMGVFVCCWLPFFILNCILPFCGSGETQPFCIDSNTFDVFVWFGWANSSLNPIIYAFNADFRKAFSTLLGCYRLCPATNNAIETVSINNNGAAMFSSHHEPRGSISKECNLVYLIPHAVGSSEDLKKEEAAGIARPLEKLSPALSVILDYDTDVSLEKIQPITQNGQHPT
# [11] = molecular target: hERG ion channel (Homo sapiens, UniProt Q12809)
# [12] = molecular target: T3, PTGS2 (Homo sapiens, UniProt P35354); test: safety panel assay, PTGS2; format: biochemical; details: Table 2, PTGS2; accurate to ±20%
# T3 sequence (P35354 18-604): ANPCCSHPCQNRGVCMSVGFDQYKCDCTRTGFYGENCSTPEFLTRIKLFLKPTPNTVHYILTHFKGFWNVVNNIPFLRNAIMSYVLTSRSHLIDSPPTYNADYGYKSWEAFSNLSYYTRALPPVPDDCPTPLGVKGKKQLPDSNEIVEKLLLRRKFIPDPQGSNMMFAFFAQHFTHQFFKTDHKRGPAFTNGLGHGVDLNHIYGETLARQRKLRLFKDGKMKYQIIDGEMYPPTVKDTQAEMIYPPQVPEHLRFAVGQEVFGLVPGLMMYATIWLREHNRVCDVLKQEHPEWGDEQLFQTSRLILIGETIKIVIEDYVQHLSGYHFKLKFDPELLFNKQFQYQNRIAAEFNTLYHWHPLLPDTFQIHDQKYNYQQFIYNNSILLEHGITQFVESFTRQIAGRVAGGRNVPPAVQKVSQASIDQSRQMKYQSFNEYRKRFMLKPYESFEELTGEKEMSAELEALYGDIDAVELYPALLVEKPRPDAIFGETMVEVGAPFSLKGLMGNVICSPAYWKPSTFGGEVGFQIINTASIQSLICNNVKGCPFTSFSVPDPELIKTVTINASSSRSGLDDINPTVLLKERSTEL
# [13] = molecular target: SLC18A2 (Homo sapiens, UniProt Q05940); test: transporter inhibition, SLC18A2; format: biochemical; details: Table 2, SLC18A2; accurate to ±20%
# Chain of SLC18A2 (Q05940 whole entry, species assumed): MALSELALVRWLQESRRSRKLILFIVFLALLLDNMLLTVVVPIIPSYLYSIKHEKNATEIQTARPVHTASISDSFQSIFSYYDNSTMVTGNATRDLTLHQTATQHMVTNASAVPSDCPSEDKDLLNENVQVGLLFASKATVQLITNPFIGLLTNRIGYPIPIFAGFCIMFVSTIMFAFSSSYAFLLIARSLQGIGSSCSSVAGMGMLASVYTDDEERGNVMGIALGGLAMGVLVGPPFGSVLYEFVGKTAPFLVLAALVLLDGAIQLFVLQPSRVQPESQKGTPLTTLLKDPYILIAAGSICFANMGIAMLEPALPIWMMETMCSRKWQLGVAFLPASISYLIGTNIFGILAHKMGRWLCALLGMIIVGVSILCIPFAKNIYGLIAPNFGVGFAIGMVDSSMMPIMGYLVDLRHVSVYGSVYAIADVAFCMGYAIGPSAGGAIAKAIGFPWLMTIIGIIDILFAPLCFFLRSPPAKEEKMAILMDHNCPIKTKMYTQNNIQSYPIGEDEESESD
# [14] = molecular target: PTGS1 (Homo sapiens, UniProt P23219); details: Table 2, PTGS1; accurate to ±20%
# [15] = molecular target: HRH3 (Homo sapiens, UniProt Q9Y5N1); details: Table 2, HRH3; accurate to ±20%
# Chain of HRH3 (Q9Y5N1 whole entry, species assumed): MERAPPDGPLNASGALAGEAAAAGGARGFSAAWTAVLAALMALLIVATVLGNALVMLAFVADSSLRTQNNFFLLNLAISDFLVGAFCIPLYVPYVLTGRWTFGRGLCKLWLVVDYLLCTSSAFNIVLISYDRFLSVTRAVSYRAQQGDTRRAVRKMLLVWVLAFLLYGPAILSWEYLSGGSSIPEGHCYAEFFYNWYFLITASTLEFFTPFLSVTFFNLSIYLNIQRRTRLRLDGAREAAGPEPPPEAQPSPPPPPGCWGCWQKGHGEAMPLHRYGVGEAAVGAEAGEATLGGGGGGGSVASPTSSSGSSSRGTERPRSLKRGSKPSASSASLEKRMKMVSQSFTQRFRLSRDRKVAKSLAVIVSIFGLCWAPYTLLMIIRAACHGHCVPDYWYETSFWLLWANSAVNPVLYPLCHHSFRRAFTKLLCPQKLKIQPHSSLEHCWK
# [16] = molecular target: KCNH2 (Homo sapiens, UniProt Q12809)
# Chain of KCNH2 (Q12809 whole entry): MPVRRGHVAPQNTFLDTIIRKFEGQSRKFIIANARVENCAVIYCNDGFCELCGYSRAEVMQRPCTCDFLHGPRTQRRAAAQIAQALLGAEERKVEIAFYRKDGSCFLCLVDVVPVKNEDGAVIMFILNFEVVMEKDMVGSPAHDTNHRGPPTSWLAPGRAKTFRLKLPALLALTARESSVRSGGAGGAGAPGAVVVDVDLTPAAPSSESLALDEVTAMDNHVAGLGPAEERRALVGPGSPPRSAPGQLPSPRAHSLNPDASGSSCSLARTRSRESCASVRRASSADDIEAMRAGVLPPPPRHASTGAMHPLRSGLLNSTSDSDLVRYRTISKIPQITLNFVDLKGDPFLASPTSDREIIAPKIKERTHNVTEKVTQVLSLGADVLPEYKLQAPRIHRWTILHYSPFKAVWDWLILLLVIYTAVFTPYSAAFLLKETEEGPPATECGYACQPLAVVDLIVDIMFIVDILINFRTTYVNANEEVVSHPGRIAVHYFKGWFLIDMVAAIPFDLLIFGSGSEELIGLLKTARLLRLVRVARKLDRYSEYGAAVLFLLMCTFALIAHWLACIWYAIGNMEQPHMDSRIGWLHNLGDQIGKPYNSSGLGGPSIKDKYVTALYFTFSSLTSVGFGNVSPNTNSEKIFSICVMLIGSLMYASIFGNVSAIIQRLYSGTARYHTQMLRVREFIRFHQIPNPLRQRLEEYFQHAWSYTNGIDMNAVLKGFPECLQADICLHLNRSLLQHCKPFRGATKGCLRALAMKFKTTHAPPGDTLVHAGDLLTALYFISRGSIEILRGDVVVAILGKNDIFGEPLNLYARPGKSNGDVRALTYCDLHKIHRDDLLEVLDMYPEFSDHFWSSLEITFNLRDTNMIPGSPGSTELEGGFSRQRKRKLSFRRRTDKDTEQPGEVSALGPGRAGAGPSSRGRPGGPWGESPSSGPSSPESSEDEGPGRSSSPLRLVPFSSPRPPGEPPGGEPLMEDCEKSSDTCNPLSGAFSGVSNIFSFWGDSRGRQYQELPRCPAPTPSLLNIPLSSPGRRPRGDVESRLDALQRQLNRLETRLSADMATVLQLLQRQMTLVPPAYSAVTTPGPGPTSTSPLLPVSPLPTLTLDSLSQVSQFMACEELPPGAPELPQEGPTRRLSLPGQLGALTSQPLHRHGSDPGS
# [17] = molecular target: ACHE (Homo sapiens, UniProt P22303); details: Table 2, ACHE; accurate to ±20%
# [18] = test system: BioMAP Diversity PLUS panel; test: BioMAP Diversity PLUS panel of cell-based systems
# [19] = molecular target: COMT (Homo sapiens, UniProt P21964); test: in vitro inhibition of COMT
# Chain of COMT (P21964 whole entry): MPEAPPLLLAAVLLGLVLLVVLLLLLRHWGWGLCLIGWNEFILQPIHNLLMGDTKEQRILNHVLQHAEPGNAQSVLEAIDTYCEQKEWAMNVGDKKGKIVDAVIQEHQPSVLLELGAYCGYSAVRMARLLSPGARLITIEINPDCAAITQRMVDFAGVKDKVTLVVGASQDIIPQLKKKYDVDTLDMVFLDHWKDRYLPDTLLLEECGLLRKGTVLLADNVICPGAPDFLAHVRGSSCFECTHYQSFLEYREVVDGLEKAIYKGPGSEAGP
# [20] = Madin-Darby canine kidney permeability assay; details: dog, MDCK
# [21] = molecular target: KDM4C (Homo sapiens, UniProt Q9H3R0); test: in vitro assay, KDM4C; format: biochemical; details: Table 2, KDM4C; accurate to ±20%
# [22] = molecular target: TY3H (Homo sapiens, UniProt P07101); test: in vitro assay, TY3H; format: biochemical; details: Table 2, TY3H; accurate to ±20%
# [23] = molecular target: FTO (Homo sapiens, UniProt Q9C0B1); test: in vitro assay, FTO; format: biochemical; details: Table 2, FTO; accurate to ±20%
# [24] = Pharmacokinetics in rats after i.v. and oral administration; details: for Cmax: 10 mg/kg, oral 10 mg/kg
# [25] = molecular target: ALOX5 (Homo sapiens, UniProt P09917); test: in vitro assay, ALOX5; format: biochemical
# Chain of ALOX5 (P09917 whole entry, species assumed): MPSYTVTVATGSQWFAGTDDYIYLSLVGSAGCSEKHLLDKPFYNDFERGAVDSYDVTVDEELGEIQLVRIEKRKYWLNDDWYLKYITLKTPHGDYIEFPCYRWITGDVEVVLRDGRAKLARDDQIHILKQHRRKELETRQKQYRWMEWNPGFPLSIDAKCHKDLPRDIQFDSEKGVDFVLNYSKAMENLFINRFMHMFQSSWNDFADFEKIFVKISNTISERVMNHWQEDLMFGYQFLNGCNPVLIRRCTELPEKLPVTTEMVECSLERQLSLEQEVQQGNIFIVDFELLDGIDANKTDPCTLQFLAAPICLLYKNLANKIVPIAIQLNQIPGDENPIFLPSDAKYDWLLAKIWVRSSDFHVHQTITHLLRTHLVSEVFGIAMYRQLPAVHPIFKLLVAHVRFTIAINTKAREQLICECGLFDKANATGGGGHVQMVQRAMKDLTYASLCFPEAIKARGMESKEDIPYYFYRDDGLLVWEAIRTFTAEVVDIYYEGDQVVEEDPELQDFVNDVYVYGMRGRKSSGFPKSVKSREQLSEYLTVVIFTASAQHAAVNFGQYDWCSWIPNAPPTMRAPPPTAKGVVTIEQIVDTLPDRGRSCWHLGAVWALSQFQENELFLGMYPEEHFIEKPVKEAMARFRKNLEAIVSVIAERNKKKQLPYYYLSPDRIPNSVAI
# [26] = molecular target: SLC6A2 (Homo sapiens, UniProt P23975); details: Table 2, SLC6A2; accurate to ±20%
# [27] = molecular target: T4, CHRM1 (Homo sapiens, UniProt P11229); details: Table 2, CHRM1; an agonist effect was observed; accurate to ±20%
# T4 sequence (P11229 1-460): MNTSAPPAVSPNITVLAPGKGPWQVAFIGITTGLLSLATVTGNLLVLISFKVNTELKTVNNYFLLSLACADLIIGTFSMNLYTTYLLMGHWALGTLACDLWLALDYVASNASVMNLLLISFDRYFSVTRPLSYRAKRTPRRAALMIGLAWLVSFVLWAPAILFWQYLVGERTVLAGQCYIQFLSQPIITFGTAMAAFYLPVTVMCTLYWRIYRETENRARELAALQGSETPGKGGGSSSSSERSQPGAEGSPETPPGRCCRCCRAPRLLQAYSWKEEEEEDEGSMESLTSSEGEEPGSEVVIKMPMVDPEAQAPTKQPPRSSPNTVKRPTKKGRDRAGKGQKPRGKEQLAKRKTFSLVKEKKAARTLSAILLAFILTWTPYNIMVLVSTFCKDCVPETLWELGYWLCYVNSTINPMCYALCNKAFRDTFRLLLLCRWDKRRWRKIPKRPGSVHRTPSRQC
# [28] = molecular target: SLC6A3 (Homo sapiens, UniProt Q01959); test: safety panel assay, SLC6A3; format: biochemical; details: Table 2, SLC6A3; accurate to ±20%
# [29] = molecular target: DRD3 (Homo sapiens, UniProt P35462); details: Table 2, DRD3; accurate to ±20%
# [30] = molecular target: GABRA1 (Homo sapiens, UniProt P14867); test: safety panel assay, GABRA1; format: binding; details: Table 2, GABRA1; accurate to ±20%
# Chain of OPRM1 (P35372 whole entry, species assumed): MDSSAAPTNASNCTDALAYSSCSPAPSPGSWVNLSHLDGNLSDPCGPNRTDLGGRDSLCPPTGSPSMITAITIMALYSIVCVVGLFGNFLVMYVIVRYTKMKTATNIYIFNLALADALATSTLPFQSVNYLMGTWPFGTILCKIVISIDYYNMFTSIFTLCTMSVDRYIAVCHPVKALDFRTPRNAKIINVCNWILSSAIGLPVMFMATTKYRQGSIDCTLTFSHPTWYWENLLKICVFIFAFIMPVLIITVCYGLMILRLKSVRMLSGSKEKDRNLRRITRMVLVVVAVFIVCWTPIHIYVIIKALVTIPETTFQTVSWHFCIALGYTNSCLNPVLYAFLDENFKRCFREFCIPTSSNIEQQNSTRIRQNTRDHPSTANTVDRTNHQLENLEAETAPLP
# Chain of CHRM2 (P08172 whole entry, species assumed): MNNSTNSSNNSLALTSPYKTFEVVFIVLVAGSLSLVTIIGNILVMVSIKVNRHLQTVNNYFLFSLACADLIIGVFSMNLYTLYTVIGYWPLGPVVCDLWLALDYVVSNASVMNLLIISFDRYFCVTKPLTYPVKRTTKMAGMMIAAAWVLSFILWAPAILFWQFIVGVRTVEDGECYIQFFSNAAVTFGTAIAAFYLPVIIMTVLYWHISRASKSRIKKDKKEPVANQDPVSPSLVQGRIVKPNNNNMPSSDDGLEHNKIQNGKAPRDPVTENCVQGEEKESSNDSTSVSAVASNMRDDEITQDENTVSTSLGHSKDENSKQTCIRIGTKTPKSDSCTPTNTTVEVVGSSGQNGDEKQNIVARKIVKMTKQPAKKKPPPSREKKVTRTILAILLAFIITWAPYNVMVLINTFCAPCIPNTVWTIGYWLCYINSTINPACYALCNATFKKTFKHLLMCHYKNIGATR
compound,measurement,setting,value
"O=C([O-])c1c(Cl)c(Cl)c(Cl)c(Cl)c1-c1c2cc(Br)c(=O)c(Br)c-2oc2c(Br)c([O-])c(Br)cc12.[Na+].[Na+] [D&C Red No. 28, Phloxine B]",Ki/IC50 Or EC50,[1],680 nM
same,Ki/IC50 Or EC50,[2],820 nM
same,Ki/IC50 Or EC50,[3],130 nM
same,Ki/IC50 Or EC50,[4],480 nM
same,Ki/IC50,[5],64 nM
same,Ki/IC50,[6],700 nM
same,Ki/IC50 Or EC50,[7],940 nM
same,Ki/IC50 Or EC50,[8],600 nM
same,Ki/IC50 Or EC50,[9],480 nM
same,Ki/IC50 Or EC50,[10],590 nM
CNC1(c2ccccc2Cl)CCCCC1=O (stereo not shown) [ketamine],hERG activity,[11],no detectable hERG activity
CCCCCCCC/C=C\CCCCCCCC(=O)O [Oleic acid],Ki/IC50 Or EC50,[12],3500 nM
same,Ki/IC50 Or EC50,[13],4700 nM
same,Ki/IC50 Or EC50,[14],6700 nM
CN(C)c1ccc2nc3ccc(=[N+](C)C)cc-3sc2c1 [Methylene Blue],Ki/IC50 Or EC50,[1],190 nM
same,Ki/IC50 Or EC50,[15],880 nM
same,Ki/IC50 Or EC50,[16]; human,0.090 0.19 0.88 27.5 μM
same,Ki/IC50 Or EC50,[17],90 nM
CCCOC(=O)c1cc(O)c(O)c(O)c1 [Propyl gallate],Ki/IC50 Or EC50,[12],7200 nM
same,effect on proliferation,"[18]; B and T cells, coronary artery smooth muscle cells, endothelial cells, fibroblasts, at 10 or 30 μM",antiproliferative
same,pIC50,[19],7.82
same,Ki/IC50,"[19]; Table 1, predicted target COMT",15 nM
same,Papp,[20],11.7 ×10⁻⁶ cm/s
same,Ki/IC50 Or EC50,[21],39000 nM
same,Ki/IC50 Or EC50,[22],1900 nM
same,Ki/IC50 Or EC50,[23],3000 nM
same,half-life,"[24]; rat, blood, iv, 1 mg/kg",4.9 h
same,Cmax,"[24]; rat, blood, po, Oral Cmax, rats",5 nM
same,i.v. AUC 0–24 (d.n.),"[24]; rats, i.v. 1 mg/kg, dose normalized",6908 nM-hour
same,Cmax,"[24]; read-out: Oral Cmax, rats, blood",< 8.9 nM
same,pIC50,[25],6.37
same,Ki/IC50 Or EC50,"[25]; Table 2, ALOX5, accurate to ±20%",430 nM
CC(=O)[O][Hg][c]1ccccc1 [Phenylmercuric acetate],Ki/IC50 Or EC50,[26],1700 nM
same,Ki/IC50 Or EC50,[27],8100 nM
same,Ki/IC50 Or EC50,[28],1800 nM
same,Ki/IC50 Or EC50,"[16]; Table 2, KCNH2, accurate to ±20%",6.2 µM
same,Ki/IC50 Or EC50,[13],360 nM
same,Ki/IC50 Or EC50,[29],24 nM
same,Ki/IC50 Or EC50,[10],2200 nM
"O=C([O-])C1=NN(c2ccc(S(=O)(=O)[O-])cc2)C(=O)C1N=Nc1ccc(S(=O)(=O)[O-])cc1.[Na+].[Na+].[Na+] (stereo not shown) [FD&C Yellow No. 5 (Tartrazine), Tartrazine]",Ki/IC50 Or EC50,[2],16000 nM
same,activity in the BioMAP cell-based systems,"[18]; 1.1, 3.3, 10, 30 μM",no measurable activity
same,Ki/IC50 Or EC50,[30],13000 nM
same,Ki/IC50 Or EC50,[10],23000 nM
